Measurements: patent US20220007644A1, “COMPOSITIONS COMPRISING PYRIDINE CARBOXYLATE HERBICIDES WITH PHOTOSYSTEM II AND OPTIONAL HPPD INHIBITOR HERBICIDES” (Corteva Agriscience LLC, priority 2018, published 2022)

Assays:
Type in all cases: in vivo
[1] = tested on: CIRAR, Cirsium arvense (Canada thistle); experiment: Greenhouse postemergence herbicidal effect (visual injury, 20-22 d)
From the text: (§1) Greenhouse Trial Methodology—Evaluation of Postemergence Herbicidal Effect
(§2) Seeds of the desired test plant species were planted in a 90:10% v/v (volume/volume) mixture of PRO-MIX® BX (Premier Tech Horticulture, Quakertown, Pa., USA) and PROFILE®GREENS GRADE™ (Profile Products LLC, Buffalo Grove, Ill., USA) planting mixture, which typically has a pH of 5.2 to 6.2 and an organic matter content of at least 50 percent, in plastic pots with a surface area of 103.2 square centimeters (cm^2). In some aspects, to help ensure good germination and healthy plants, a fungicide treatment and/or other chemical or physical treatment was applied. The plants were grown for 7-36 days (d) in a greenhouse with an approximate 14-hour (h) photoperiod which was maintained at about 23° C. during the day and 22° C. during the night. Nutrients and water were added on a regular basis and supplemental lighting was provided with overhead metal halide 1000-Watt lamps as necessary. The plants were employed for testing when they reached the second or third true leaf stage.
(§3) Emulsifiable concentrates of each of each pyridine carboxylate herbicide (Compound A or Compound B) were prepared at 100 grams acid equivalent per liter (g ae/L). The emulsifiable concentrates also included a safener, cloquintocet-mexyl, at 120 grams active ingredient per liter (g ai/L), unless otherwise noted below. An aliquot of each emulsifiable concentrate was placed in a 25 mL glass vial and diluted with an aqueous mixture of 1.25% (v/v) ACTIROB® B esterified rapeseed oil (Bayer Crop Science, Research Triangle Park, N.C., USA) or MSO® Concentrate with LECI-TECH® methylated soybean oil (Loveland Products, Loveland, Colo., USA) to obtain concentrated stock solutions at the highest application rate for each herbicide, based upon a 12 milliliter (mL) application volume at a rate of 187 liters per hectare (L/ha). The concentrated stock solutions were further diluted with an aqueous mixture of 1.25% v/v ACTIROB® B or MSO® Concentrate with LECI-TECH® to obtain stock solutions at reduced application rates for each herbicide. Spray solutions of the herbicide combinations (Compound A or Compound B plus PS-II herbicide and optional HPPD herbicide) were prepared by adding weighed amounts or aliquots of the PS-II herbicide and optional HPPD herbicide to the stock solutions of Compound A or Compound B to form 12-mL spray solutions in two- or three-way combinations.
(§4) The spray solutions were applied to the plant material with an overhead Mandel track sprayer equipped with 8002E nozzles calibrated to deliver 187 L/ha over an application area of 0.503 square meters (m^2) at a spray height of 18 inches ([…] centimeters (cm)) above the average plant canopy. Control plants were sprayed in the same manner with the solvent blank. All pyridine carboxylate herbicide (component a) application rates are given as “g ae/ha” and all PS II inhibitor herbicide (component b) and HPPD inhibitor herbicide (component c) application rates are given as “g ai/ha.”
(§5) The treated plants and control plants were placed in a greenhouse as described above and watered by sub-irrigation to prevent wash-off of the test compounds. After 20-22 d, the condition of the test plants as compared with that of the control plants was determined visually and scored on a scale of 0 to 100 percent where 0 corresponds to no injury and 100 corresponds to complete kill.

[2] = tested on: CHEAL, Chenopodium album L. (common lambsquarters); experiment: as above
From the text: as §1, §2, §3, §4, §5

[3] = tested on: BRSNW, Brassica napus (winter rape); experiment: as above
From the text: as §1, §2, §3, §4, §5

[4] = tested on: SASKR, Salsola kali (Russian thistle); experiment: as above
From the text: as §1, §2, §3, §4, §5

[5] = tested on: AMARE, Amaranthus retroflexus (pigweed); experiment: as above
From the text: as §1, §2, §3, §4, §5

[6] = tested on: MATCH, Matricaria chamomilla (wild chamomile); experiment: as above
From the text: as §1, §2, §3, §4, §5

[7] = tested on: SINAR, Sinapis arvensis (wild mustard); experiment: as above
From the text: as §1, §2, §3, §4, §5

[8] = tested on: POLCO, Polygonum convolvulus (wild buckwheat); experiment: as above
From the text: as §1, §2, §3, §4, §5

[9] = tested on: KCHSC, Kochia scoparia (kochia); experiment: as above
From the text: as §1, §2, §3, §4, §5

[10] = tested on: HORVS, Hordeum vulgare (spring barley); experiment: Greenhouse postemergence phytotoxicity on crop (visual injury, 20-22 d)
From the text: as §1, §2, §3, §4, §5

[11] = tested on: TRZAS, Triticum aestivum (spring wheat); experiment: as above
From the text: as §1, §2, §3, §4, §5

[12] = tested on: SORVU, Sorghum vulgare (grain sorghum); experiment: Greenhouse postemergence herbicidal effect (visual injury, 20-22 d); conditions: 5 g ai/ha alone
From the text: as §1, §2, §3, §4, §5

[13] = tested on: IPOHE, Ipomoea hederacea (ivyleaf morningglory); experiment: as above; conditions: 5 g ai/ha alone
From the text: as §1, §2, §3, §4, §5

[14] = tested on: ABUTH, Abutilon theophrasti (velvetleaf); experiment: as above; conditions: 5 g ai/ha alone
From the text: as §1, §2, §3, §4, §5

[15] = tested on: GLXMA, Glycine max (soybean); experiment: as above; conditions: 5 g ai/ha alone
From the text: as §1, §2, §3, §4, §5

[16] = tested on: BRSNN, Brassica napus (spring rape); experiment: as above; conditions: 125 g ai/ha alone
From the text: as §1, §2, §3, §4, §5

[17] = Fallopia convolvulus, post-emergence, read-out: visual injury Obs

Structure (SMILES): CCOC(=O)Nc1cccc(OC(=O)Nc2ccccc2)c1 [Desmedipham, 3-ethoxycarbonylaminophenyl phenylcarbamate]
- visual injury Obs ([1]; 162.5 g ai/ha alone): 10%
- visual injury Obs ([2]; 162.5 g ai/ha alone): 0%
- visual injury Obs ([3]; 162.5 g ai/ha alone): 0%
- visual injury Obs ([4]; 162.5 g ai/ha alone): 0%
- visual injury Obs ([5]; 162.5 g ai/ha alone): 15%
- visual injury Obs ([6]; 162.5 g ai/ha alone): 0%
- visual injury Obs ([7]; 162.5 g ai/ha alone): 0%
- pest or weed control at 162.5 g/ha [8, 17]: 0%
- visual injury Obs ([9]; 162.5 g ai/ha alone): 0%
- visual injury Obs ([10]; 162.5 g ai/ha alone): 0%
- visual injury Obs ([11]; 162.5 g ai/ha alone): 0%

Structure (SMILES): CN(C)C(=O)Nc1ccc(Cl)c(Cl)c1 [Diuron, 3-(3,4-dichlorophenyl)-1,1-dimethylurea]
- visual injury Obs ([1]; 220 g ai/ha alone): 40%
- visual injury Obs ([2]; 220 g ai/ha alone): 100%
- visual injury Obs ([3]; 220 g ai/ha alone): 5%
- visual injury Obs ([4]; 220 g ai/ha alone): 40%
- visual injury Obs ([5]; 220 g ai/ha alone): 98%
- visual injury Obs ([6]; 220 g ai/ha alone): 15%
- visual injury Obs ([7]; 220 g ai/ha alone): 5%
- pest or weed control at 220 g/ha [8, 17]: 5%
- visual injury Obs ([9]; 220 g ai/ha alone): 90%
- visual injury Obs ([10]; 220 g ai/ha alone): 10%
- visual injury Obs ([11]; 220 g ai/ha alone): 0%

Structure (SMILES): CSc1nnc(C(C)(C)C)c(=O)n1N [Metribuzin, 4-amino-6-tert-butyl-3-methythio-1,2,4-triazin-5(4H)-one]
- visual injury ([1]; 25 g ai/ha alone): 3%
- visual injury ([2]; 25 g ai/ha alone): 3%
- visual injury ([3]; 25 g ai/ha alone): 0%
- visual injury ([4]; 25 g ai/ha alone): 0%
- visual injury ([5]; 25 g ai/ha alone): 0%
- visual injury ([6]; 25 g ai/ha alone): 0%
- visual injury ([7]; 25 g ai/ha alone): 18%
- visual injury ([8]; 25 g ai/ha alone): 0%
- visual injury ([9]; 25 g ai/ha alone): 0%
- visual injury ([10]; 25 g ai/ha alone): 0%
- visual injury ([11]; 25 g ai/ha alone): 0%

Structure (SMILES): CCC(=O)Nc1ccc(Cl)c(Cl)c1 [Propanil, 3′,4′-dichloropropionanilide, reference compound]
- visual injury Obs ([1]; 5 g ai/ha alone): 28%
- visual injury Obs [12]: 15%
- visual injury Obs [13]: 38%
- pest or weed control at 5 g/ha ([8]; Fallopia convolvulus, post-emergence, 5 g ai/ha alone, read-out: visual injury Obs): 20%
- visual injury Obs [14]: 10%
- visual injury Obs [15]: 23%

Structure (SMILES): CCCCCCCCSC(=O)Oc1cc(Cl)nnc1-c1ccccc1 [Pyridate, O-6-chloro-3-phenylpyridazin-4-yl S-octyl thiocarbonate]
- visual injury Obs ([2]; 125 g ai/ha alone): 0%
- visual injury Obs ([4]; 125 g ai/ha alone): 0%
- visual injury Obs ([7]; 125 g ai/ha alone): 0%
- pest or weed control at 125 g/ha ([8]; Fallopia convolvulus, post-emergence, 125 g ai/ha alone, read-out: visual injury Obs): 0%
- visual injury Obs [16]: 15%
- visual injury Obs ([9]; 125 g ai/ha alone): 0%
- visual injury Obs ([10]; 125 g ai/ha alone): 5%
- visual injury Obs ([11]; 125 g ai/ha alone): 0%

Structure (SMILES): CNC(=O)N(C)c1nnc(C(C)(C)C)s1 [Tebuthiuron, 1-(5-tert-butyl-1,3,4-thiadiazol-2-yl)-1,3-dimethylurea, reference compound]
- visual injury Obs ([1]; 280 g ai/ha alone): 40%
- visual injury Obs ([2]; 280 g ai/ha alone): 98%
- visual injury Obs ([3]; 280 g ai/ha alone): 45%
- visual injury Obs ([5]; 280 g ai/ha alone): 88%
- visual injury Obs ([6]; 280 g ai/ha alone): 25%
- visual injury Obs ([7]; 280 g ai/ha alone): 35%
- pest or weed control at 280 g/ha [8, 17]: 40%
- visual injury Obs ([9]; 280 g ai/ha alone): 23%
- visual injury Obs ([10]; 280 g ai/ha alone): 28%
- visual injury Obs ([11]; 280 g ai/ha alone): 0%
